This note sets out measurements from PMC8607422, “Development of a novel TLR8 agonist for cancer immunotherapy” (Molecular Biomedicine, 2020).

Molecules are shown by their SMILES.

Assay [1] relates to EMT6 mouse breast cancer cells. Put plainly: EMT6 mouse syngeneic breast cancer model. In kind it is in vivo. As to conditions: AZD-1775 30 mg/kg po bid. How it is done: All the animal experiments were conducted following Association for Assessment and Accreditation of Laboratory Animal Care (AAALAC)‘s guideline. The animal protocols were approved by the Institutional Animal Care and Use Committee (IACUC). Cell lines were purchased from credible vendors including ATCC. After tumor cell inoculation, the animals were checked daily for morbidity and mortality. At the time of routine monitoring, the animals were checked for any effects of tumor growth and treatment on the animals’ well-being such as mobility, food and water consumption, body weight gain/loss, matting and any other abnormalities. Clinical observations were recorded. Tumor volumes were measured twice a week in two dimensions using a caliper and the volume was expressed in mm^3 using the formula: V = 0.5 a × b^2 where a and b are the long and short diameters of the tumor, respectively. The procedures of dosing as well as tumor and body weight measurement were conducted in a laminar flow cabinet.
For EMT6 experiments, EMT6 mouse breast cancer cells were cultured in vitro as a monolayer culture in RPMI1640 medium supplemented with 10% fetal bovine serum and 1% penicillin/streptomycin at 37°C in an atmosphere of 5% CO2 in air. […] The cells growing in the exponential growth phase were harvested and counted for tumor inoculation. […]

The next assay deals with T1, hTLR7 (Homo sapiens, UniProt Q9NYK1).
T1 construct: host or cells: HEK-Blue hTLR7
T1 sequence (Q9NYK1 27-1049): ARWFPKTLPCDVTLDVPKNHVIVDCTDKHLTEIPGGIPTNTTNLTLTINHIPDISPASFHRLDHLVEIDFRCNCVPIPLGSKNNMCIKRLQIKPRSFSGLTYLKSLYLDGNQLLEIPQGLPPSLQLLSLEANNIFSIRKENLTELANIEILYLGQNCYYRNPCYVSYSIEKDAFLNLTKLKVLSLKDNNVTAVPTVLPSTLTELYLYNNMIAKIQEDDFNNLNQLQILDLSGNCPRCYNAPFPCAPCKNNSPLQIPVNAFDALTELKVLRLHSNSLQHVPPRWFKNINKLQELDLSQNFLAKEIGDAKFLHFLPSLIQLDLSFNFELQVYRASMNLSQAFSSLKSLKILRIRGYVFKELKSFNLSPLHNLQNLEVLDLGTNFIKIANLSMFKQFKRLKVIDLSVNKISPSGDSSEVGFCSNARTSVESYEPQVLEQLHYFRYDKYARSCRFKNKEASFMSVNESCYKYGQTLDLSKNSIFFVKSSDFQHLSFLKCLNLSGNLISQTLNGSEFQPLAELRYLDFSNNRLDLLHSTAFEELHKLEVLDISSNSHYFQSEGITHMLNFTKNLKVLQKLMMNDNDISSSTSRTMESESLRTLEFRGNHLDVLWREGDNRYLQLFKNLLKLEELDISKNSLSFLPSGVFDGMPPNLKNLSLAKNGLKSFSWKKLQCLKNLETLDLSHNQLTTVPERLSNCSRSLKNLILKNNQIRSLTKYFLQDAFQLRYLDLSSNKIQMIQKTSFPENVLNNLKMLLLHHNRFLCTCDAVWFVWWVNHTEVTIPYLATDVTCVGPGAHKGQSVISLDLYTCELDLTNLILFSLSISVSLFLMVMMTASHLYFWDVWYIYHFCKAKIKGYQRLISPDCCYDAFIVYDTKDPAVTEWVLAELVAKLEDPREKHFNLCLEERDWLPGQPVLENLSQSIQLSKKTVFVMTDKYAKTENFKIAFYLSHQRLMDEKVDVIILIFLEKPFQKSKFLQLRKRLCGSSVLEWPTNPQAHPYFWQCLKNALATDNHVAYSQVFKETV
The assay can be described thus: HEK-Blue hTLR7 SEAP reporter agonist assay. Format: cell-based. The conditions noted are these: positive control. An excerpt: HEK-Blue™ hTLR4, 7, 8 and 9 cell lines were purchased from InvivoGen (Hong Kong). The cells express the human TLR gene and NF-κB/AP-1-inducible SEAP (secreted embryonic alkaline phosphatase) reporter gene. SEAP levels produced upon TLR stimulation can be determined by QUANTI-Blue™. In the cell-based assay, the main reagents used were QUANTI-Blue™ (InvivoGen) and ATPlite 1 Step (Perkin Elmer). The main instruments used were the microplate reader SpectraMax 340PC (Molecular Device) and Envision (Perkin Elmer). Motolimod and DN052 were synthesized in house. […] The compounds were in 10 mM stock solution in DMSO and stored at − 20°C. The compounds were serially diluted in the concentration range from 0.5 nM to 15 μM (up to 50 μM in the hTLR4, hTLR7 and hTLR9 assays) and added to 96-well plates. DMSO was used as the negative control. LPS-EK, R848, motolimod and ODN2006 were used as the positive control for TLR4, 7, 8 and 9, respectively. The cells were cultured and treated with the compounds at 37°C, 5%CO2 for 24 h. […] After 1.5 h of incubation, the optical density was measured using the spectrophotometer at 650 nm in the microplate reader of SpectraMax 340PC. The cell viability of each well was determined using ATPlite 1 Step following the manufacturer’s instruction. The luminescence signal in each well of plates was measured in the microplate reader of Envision.

Take `C=CCn1c(=O)c2cnc(Nc3ccc(N4CCN(C)CC4)cc3)nc2n1-c1cccc(C(C)(C)O)n1` [AZD-1775]: the “response of EMT6 model to single agent” value in assay [1] was “largely resistant”.

As for `CCOCc1nc2c(N)nc3ccccc3c2n1CC(C)(C)O` [R848], the “activity of positive control in TLR7 assay” value at hTLR7 is listed as “active”.
